Patent publication US11072637B2, “Walnut oligopeptide powder, preparation method and application thereof” (Sinphar Tian-Li (Hangzhou) Pharmacy Company Limited, priority 2016, dated 2021)
Where “and” joins values, the source holds several entries; their conditions need not be identical. Identical values can stand only once. Non-standard residues stand in square brackets, D forms with d. Residues, ends and D or L forms follow the SMILES beside them. pGlu = O=C1CC[C@@H](C(=O)O)N1; Thz = O=C(O)[C@@H]1CSCN1

Legend:
[1] = test system: zebra fish macrophages; experiment: Promotion of phagocytosis function of zebra fish macrophages (ink model); format: in vivo; settings: 200 μg/mL
Procedure: 2. Promotion Effect of Walnut Oligopeptide Powder on Phagocytosis Function of Zebra Fish Macrophages
Zebra fish macrophage promoting model inhibition model was built by intravenous injection of ink in 2 days (2 dpf) zebra fishes after fertilization. respectively dissolved in fish water to give the walnut oligopeptide and the positive drug pidotimod, […], and the concentration of the pidotimod is 200 […]. Meanwhile, model control group and normal control group were set, in which 30 tail zebra fishes are in each experimental group, and each group was placed in a 28 L incubator to be cultured. When processing to 3 dpf, the zebra fishes in each experiment group were subjected to neutral red staining, after dyeing for 4 hours, 10-tail zebra fishes from each experimental group were selected to be observed under microscope randomly, and photos were taken and stored; image analysis for the ink signal of the zebra fish macrophages was carried out by image processing software. The improvement effect of four test samples on phagocytosis function of the zebra fish macrophages was quantitatively evaluated.

[2] = test system: central nervous system of zebra fishes; experiment: Protection of zebra fish central nervous system (mycophenolate-induced injury); format: in vivo; settings: 154 μg/mL
Procedure: Protection Effect of the Walnut Oligopeptide Powder on the Central Nervous Centrum of Zebra Fishes 180 wild type AB strain zebra fishes after fertilization in […] (1 dpf) were selected randomly and were arranged in six-well plate, and 30 tail zebra fishes were treated in each hole (the experiment group), and central injury of the zebra fishes was induced by the mycophenolate mophol ester. […] After the oligopeptide was subjected to co-treatment for 24 hours with the mycophenolate, the acridine orange was used for dyeing, after dyeing, 10 tail zebra fishes from each experimental group were selected randomly to photograph under fluorescence microscope and collect data, analyzing and counting the fluorescent intensity of the apoptotic cells of central nervous system (brain and spinal cord) of the zebra fishes; the protective effect of the walnut oligopeptide powder on the central nervous system of zebra fishes was evaluated according to the fluorescence intensity.

[3] = test system: zebra fish macrophages; experiment: Improvement of zebra fish macrophage inhibition (vinorelbine model); format: in vivo; settings: for number of macrophages of the zebra fish head, Mean ± SD(count): 1.9 μg/mL in fish water, model control 15, normal control 27, n = 10
Procedure: Improvement Effect of Walnut Oligopeptide Powder on Inhibition of Zebra Fish Macrophages […] Meanwhile, model control group and normal control group were set (no treatment was carried out), in which 30 tail zebra fishes were in each experimental group, and each group was placed in a 28 L incubator to be cultured. When processing to 3 dpf, the zebra fishes in each experiment group were subjected to neutral red staining. After dyeing for 4 hours, 10-tail zebra fishes from each experimental group were selected to be observed under microscope randomly, and photos were taken and stored. Image analysis for the number of the zebra fish macrophages was carried out by image processing software. The improvement effect of the walnut oligopeptide powder on inhibition of the zebra fish macrophage was quantitatively evaluated.

[4] = test system: Sodium Nitrite-Induced Memory Consolidation Disorder of Mice; experiment: Sodium nitrite-induced memory consolidation disorder of mice (jumping table); format: in vivo, ICR mouse; settings: sodium nitrite model, 30 mg/kg
Procedure: (§1) The test animal was a cleaning-grade ICR mouse with 18-22 g in weight, the three batches of 300 were provided by Nantong University. Laboratory animal production license is SCXK (Su) 2014-0001, fed by conventional mouse feedstuff, and free drinking water. Before the experiment they were fed in a quiet environment for 1 week, freely-feeding and drinking water, and keeping the room temperature (22±1° C.) and natural day and night rhythm illumination. The mouse was randomly grouped and low, medium and high dosage groups (30, 100 and 300 mg/kg) of walnut oligopeptide (preparation example 1) was provided, the blank group and the model group were given equal-volume distilled water respectively, and 30 mg/kg of nimodipine was administrated in positive control group, respectively filling the stomach for one time every day in each group, and continuously feeding the medicines for 7 days. Jump-table training. […] During testing, the mouse were placed on the jumping table, and time was counted at the same time. The first jumping time of the mouse was recorded, and it was an electric shock incubation period (namely, an error incubation period) and recording the times of jumping within 5 minutes (i.e., the times of errors), was recorded as observation index. […]

[5] = test system: Scopolamine-Induced Memory Acquisition Impairment of the Mice; experiment: Scopolamine-induced memory acquisition impairment of mice (jumping table); format: in vivo, ICR mouse; settings: scopolamine model, 30 mg/kg
Procedure: 1. Test Animal The test animal was a cleaning-grade ICR mouse with 18-22 g in weight, the three batches of 300 were provided by Nantong University. Laboratory animal production license is SCXK (Su) 2014-0001, fed by conventional mouse feedstuff, and free drinking water. Before the experiment they were fed in a quiet environment for 1 week, freely-feeding and drinking water, and keeping the room temperature (22±1° C.) and natural day and night rhythm illumination. 2.1 Influence on Scopolamine-Induced Memory Acquisition Impairment of Mouse The mouse was randomly grouped and low, medium and high dosage groups (30, 100 and 300 mg/kg) of walnut oligopeptide (preparation example 1) was provided, the blank group and the model group were given equal-volume distilled water respectively, and 30 mg/kg of nimodipine was administrated in positive control group, respectively filling the stomach for one time every day in each group, and continuously feeding the medicines for 7 days. Jump-table training. […] During testing, the mouse were placed on the jumping table, and time was counted at the same time. The first jumping time of the mouse was recorded, and it was an electric shock incubation period (namely, an error incubation period) and recording the times of jumping within 5 minutes (i.e., the times of errors), was recorded as observation index.

[6] = test system: 40% Ethanol-Induced Memory Reproduction Disorder of Mice; experiment: 40% ethanol-induced memory reproduction disorder of mice (jumping table); format: in vivo, ICR mouse; settings: 40% ethanol model, 30 mg/kg
Procedure: as §1

[7] = test system: H2O2 induced PC12 cell; experiment: Protection of PC12 cells against hydrogen peroxide damage (MTT); format: cell-based; settings: 80 μg/ml, 6 hours pre-culture, then 100 μM H2O2 12 hours; model group 57.2
Procedure: PC12 nerve cell protection model: This is a good model for studying nerve cell physiology, pathology and pharmacology, and also a most common in-vitro drug screening model for studying Parkinson's disease and neuro-fatigue.
PC12 cells were cultured by using a high-sugar DMEM culture medium containing 10% fetal calf serum, and digesting for about 50 seconds by using 0.25% of pancreatin during cell passage, stopping digestion by using a DMEM culture medium containing 10% serum, and adding fresh culture medium to blow the cells uniformly. Cell density passage of 10^5/ml was carried out. 4 ml of culture solution containing cells was added to each bottle of cells, culturing under the conditions of 37° C. and 5% CO2. […]
The 96-well plate was respectively given to 100 μL of the walnut oligopeptide by a certain concentration gradient in each hole, after culturing for 24 hours, the cell vitality was detected by MTT method. […] The cell activity of the model group and the drug delivery group was calculated by taking the average value of the OD value of the control group as 100% of the cell activity. […]
The above groups were cultured under the same conditions, and then subsequent experiments were carried out. The cell activity was detected by MTT method in 96-well plates.

O=C1CC[C@@H](C(=O)N2CSC[C@H]2C(=O)O)N1 [pidotimod] ([pGlu]-[Thz]-OH)
Promotion Effect (time) ([1]; compared with model control group): 2.3 time | number of macrophages of the phagocytosis ink, Mean ± SD(count) ([1]; model control 1.5, n = 10): 3.5 count and 3.5 ± 1.8 count

N[C@@H](CCC(=O)N[C@@H](CS)C(=O)NCC(=O)O)C(=O)O [GSH, glutathione]
Protection Effect on Central Nervous System (%) [2]: 92% | fluorescence intensity of central apoptosis cell (pixel)(mean ± SE) ([2]; 24 hours co-treatment with mycophenolate, model 565783, normal 161976): 190000 pixel and 193900 ± 8302 pixel

COc1ccc2cc3[n+](cc2c1OC)CCc1cc2c(cc1-3)OCO2 [Berberine, berberine]
number of macrophages of the zebra fish head, Mean ± SD(count) [3]: 20 ± 4 count | number of macrophages of the zebra fish head, Mean ± SD(count) ([3]; listed as berberine): 20 count | Improvement Effect (%) ([3]; 1.9 μg/mL, compared with model control group): 41.67%

COCCOC(=O)C1=C(C)NC(C)=C(C(=O)OC(C)C)C1c1cccc([N+](=O)[O-])c1 (centres unmarked) [Nimodipine, nimodipine]
Incubation Period ([4]; gavage once daily 7 days, n = 10, model 94.7): 237.7 ± 79.7 s | Times of Error (n) ([4]; within 5 minutes, model 3.6): 1.0 ± 1.2 n | Incubation Period ([5]; gavage once daily 7 days, n = 10, model 14.6): 35.9 ± 30.3 s | Times of Error (n) ([5]; within 5 minutes, model 3.5): 2.0 ± 1.4 n | Incubation Period ([6]; gavage once daily 7 days, n = 8, model 46.3): 99.6 ± 98.7 s | Times of Error (n) ([6]; within 5 minutes, model 5.7): 2.5 ± 1.4 n

CC(=O)N[C@@H](CS)C(=O)O [Positive group, NAC]
Cell activity(%) [7]: 88.0%
